Measurements from ChEMBL document CHEMBL1124030, “Synthesis and biological activity of the four stereoisomers of 6-[4-[3-[[2-hydroxy-3-[4-[2- (cyclopropylmethoxy)ethyl]phenoxy]propyl]amino]-propionamido] phenyl]-5-methyl-4,5-dihydro-3(2H)-pyridazinone, a combined vasodilator and beta-adrenoceptor antagonist” (1988).

Columns and labels:
Assay type in all cases: functional
Rattus norvegicus [1] = assay: Dose required to produce a 50% increase in blood flow to the autoperfused hindquarters of the anesthetized normotensive rat
Felis catus = assay: Dose required to induce 50% inhibition of isoprenaline-induced tachycardia in the ganglion blocked anesthetized cat; conditions: read-out: ID50 (the source's name)
Rattus norvegicus [2] = assay: Dose required to produce a fall in blood pressure of 40 mmHg in the anesthetized normotensive rat

SMILES	ED50 (Rattus norvegicus [1]) [µmol/kg]	ED50 (Felis catus) [µmol/kg]	ED40 (Rattus norvegicus [2]) [µM/kg]
C[C@@H]1CC(=O)NN=C1c1ccc(NC(=O)CCNC[C@H](O)COc2ccc(CCOCC3CC3)cc2)cc1	1	1.7	2.4
C[C@@H]1CC(=O)NN=C1c1ccc(NC(=O)CCNC[C@@H](O)COc2ccc(CCOCC3CC3)cc2)cc1	0.9	20.2	4.9
C[C@H]1CC(=O)NN=C1c1ccc(NC(=O)CCNC[C@H](O)COc2ccc(CCOCC3CC3)cc2)cc1	> 40	1.6	>40
C[C@H]1CC(=O)NN=C1c1ccc(NC(=O)CCNC[C@@H](O)COc2ccc(CCOCC3CC3)cc2)cc1	> 40	8.6	20
CC1CC(=O)NN=C1c1ccc(NC(=O)CCNCC(O)COc2ccc(CCOCC3CC3)cc2)cc1 (stereo not given)	1.6	1.7	2.4
